Experimental data taken from patent US20230002449A1, “DERIVED PEPTIDE OF LACTOFERRIN AND METHOD THEREOF FOR PROMOTING AND/OR INCREASING LIPID SYNTHESIS” (RENORIGIN INNOVATION INSTITUTE CO., LTD., priority 2021, published 2023).

Test system: Human sebocytes
Assay: Neutral fat detection (Nile red staining, fluorescence intensity) in human sebocytes
Format: cell-based
Experimental: Human sebocytes (Cat. No. 36079-01, Celprogen, Torrance, Calif., USA) were cultured in Dulbecco's Modified Eagle Medium (DMEM): Nutrient Mixture F-12 (DMEM/F12) purchased from Thermo Fisher Scientific Limited (Barrington, Ill., USA), 10% fetal bovine serum (FBS) purchased from Gibco, Grand Island, N.Y., USA and penicillin/streptomycin (100 IU/50 […]), incubated at 37° C. in the 5% CO2 atmosphere.
Human sebocytes were implanted in 24- or 96-well plates. After 24 hours of culture, the cells were divided into a negative control group, a positive control group and an experimental group. […] The treated human sebocytes were cultured for two days. Human sebocytes were fixed with 4% formaldehyde at room temperature. After 60 minutes of fixation, the cells were washed with PBS and stain with Nile Red solution (1 μg/ml in PBS) at 37° C. for 15 minutes. Next, the cells were washed and observed under a fluorescent microscope. Fluorescence intensity was measured with fluorometer Spectra Max i3.

[1] = 0.1 mM LA + 50 μg/mL peptide vs LA alone, FIG. 1E

Row | Compound | lipid content compared with the negative control group (0.1 mM LA alone vs negative control, FIG. 1E) | fluorescence intensity (lipid content of sebocytes, Nile red) (0.1 mM linoleic acid (LA) alone, positive control group, negative control about 1, FIG. 1E, cultured two days) | fluorescence intensity (lipid content of sebocytes, Nile red) (50 μg/mL peptide, negative control about 1.0, FIG. 2E) | fluorescence intensity (lipid content of sebocytes, Nile red) (100 μg/mL peptide, negative control about 1.0, FIG. 2E) | fluorescence intensity (lipid content of sebocytes, Nile red) (0.1 mM LA + 50 μg/mL lactoferrin peptide, negative control about 1, positive control (LA) about 3.44, FIG. 1E) | lipid content increase compared with the positive control group (LA) [1] [%] | promoting and/or increasing the content of lipid synthesized by the induction of LA (significance vs positive control) [1] | fluorescence intensity (lipid content of sebocytes, Nile red) (400 μg/mL peptide (so in the source), negative control about 1.0, FIG. 2E) | concentration dependence of the lipid content increase (50, 100, 200 μg/mL peptide, FIG. 2)
1 | CCCCC/C=C\C/C=C\CCCCCCCC(=O)O [LA, linoleic acid, reference compound] | more than 3 times | about 3.44 | – | – | – | – | – | – | –
2 | Lf13: Lactoferrin-derived peptide purchased from DgPeptides; presumably the derived peptide comprising the amino acid sequence of SEQ ID NO: 01 (APRKNVRWCTISQ; Lactoferrin derived peptide) | – | – | about 1.29 | about 1.44 | about 4.67 | 40 | significant difference | about 1.54 | dose-dependent manner
